Here are results for three compounds from ChEMBL document CHEMBL5344482, “Deconvoluting low yield from weak potency in direct-to-biology workflows with machine learning” (RSC Med Chem, 2024).

Experiment [1] deals with Replicase polyprotein 1ab (Severe acute respiratory syndrome coronavirus 2, UniProt P0DTD1). The experiment in a line: Inhibition of SARS-Cov-2 main protease using fluorogenic substrate [5-FAM]-AVLQSGFR-[Lys(Dabcyl)]-K-amide by fluorogenic assay.
In experiment [2] the target is Replicase polyprotein 1ab (Severe acute respiratory syndrome coronavirus 2) (UniProt P0DTD1). The experiment in a line: Inhibition of SARS-Cov-2 main protease using fluorogenic substrate [5-FAM]-AVLQSGFR-[Lys(Dabcyl)]-K-amide by fluorogenic assay relative to control.

Molecules are shown by their SMILES.

Usually IC50 stands for the concentration that inhibits the measured activity by half. In general, inhibition refers to the change of the read-out against control, counted positive when it falls.

Regarding `NCCc1cccc(Cl)c1`, 52 nM corresponded to half-maximal inhibition in experiment [1] (IC50).

Regarding `NCCc1ccc(C(F)F)cc1`, half-maximal inhibition in experiment [1] (IC50) was put at 50 nM.

Regarding `Nc1ncc(C(F)(F)F)cc1Cl`, in experiment [2], the inhibition was found to be 35%.
